Results taken from patent US20230080054A1 (ILDONG PHARMACEUTICAL CO., LTD., priority 2021, published 2023).

Target: T1, human ANO6 (Homo sapiens, UniProt Q4KMQ2)
T1 construct: expressed in transfected cells
T1 sequence (Q4KMQ2 1-931 isoform Q4KMQ2-2): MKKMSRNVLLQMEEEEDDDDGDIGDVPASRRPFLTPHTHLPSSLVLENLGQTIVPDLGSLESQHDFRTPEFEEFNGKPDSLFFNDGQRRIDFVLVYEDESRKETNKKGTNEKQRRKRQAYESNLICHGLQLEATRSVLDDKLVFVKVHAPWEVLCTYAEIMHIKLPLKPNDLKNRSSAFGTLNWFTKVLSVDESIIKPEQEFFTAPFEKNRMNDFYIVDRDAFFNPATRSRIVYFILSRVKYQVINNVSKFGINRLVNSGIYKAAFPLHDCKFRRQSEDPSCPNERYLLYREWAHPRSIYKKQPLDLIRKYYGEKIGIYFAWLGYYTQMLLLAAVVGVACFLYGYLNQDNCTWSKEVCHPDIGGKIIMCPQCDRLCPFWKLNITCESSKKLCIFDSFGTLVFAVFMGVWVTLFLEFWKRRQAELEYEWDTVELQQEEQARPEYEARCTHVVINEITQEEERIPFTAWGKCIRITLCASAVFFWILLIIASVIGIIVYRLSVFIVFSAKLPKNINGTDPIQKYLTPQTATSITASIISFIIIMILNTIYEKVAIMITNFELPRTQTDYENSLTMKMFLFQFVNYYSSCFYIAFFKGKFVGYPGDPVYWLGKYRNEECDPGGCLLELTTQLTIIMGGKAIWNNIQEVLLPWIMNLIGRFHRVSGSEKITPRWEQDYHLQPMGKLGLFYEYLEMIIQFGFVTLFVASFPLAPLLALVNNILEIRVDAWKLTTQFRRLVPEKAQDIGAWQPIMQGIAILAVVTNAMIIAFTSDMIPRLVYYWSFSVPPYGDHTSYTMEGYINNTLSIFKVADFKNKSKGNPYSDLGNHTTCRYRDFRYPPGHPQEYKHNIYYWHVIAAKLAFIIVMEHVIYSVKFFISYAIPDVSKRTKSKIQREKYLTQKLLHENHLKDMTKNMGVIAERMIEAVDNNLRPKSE
Assay: LACT C2 assay (phosphatidylserine scramblase function assay)
Assay type: cell-based
Settings: FRT cells expressing human ANO6, 10 μM ionomycin; for inhibition at 0.1 µM: test compound 100 nM, read-out: Inhibition Level 100 nM; for inhibition at 1 µM: test compound 1 μM, read-out: Inhibition Level 1 μM
Source text: Phosphatidylserine Scramblase Function Assay
1. Materials and Instruments
Ionomycin (Alomonelab, cat. #I-700), DAPI (Sigma-Aldrich, cat. #D8417), paraformaldehyde (Biosesang, cat. #P2031), Lionheart FX Automated Microscope (BioTek, Winooski), Python3 (Python Software Foundation), and OpenCV (Open Source Computer Vision Library).
Fisher rat thyroid (FRT) cells stably expressing human ANO6 (GenBank accession no. NP_001191732.1, provided by J. H. Nam, Dongguk University College of Medicine, Korea) were grown in DMEM/Ham's F-12 (1:1) medium with 10% FBS, 2 mM L-549 glutamine, 100 units/mL penicillin, and 100 μg/mL streptomycin at 37° C. and 5% CO2.
FRT cells stably expressing human ANO6 were plated in 96 well black-walled microplates at a density of 2×10^4 cells/well. After 24 hours incubation, cells were treated with the test compound (dissolved in DMSO) were treated to each well to become 1% v/v DMSO for 10 minutes, then 10 μM of ionomycin was applied. Finally each well was washed with 200 μL PBS after 10 minutes. After washout, the phosphatidylserine and nuclei were stained with PBS containing 500 nM Lactadherin-C2 (Lact-C2)-GFP, then cells were washed with 200 μL PBS. Cells were fixed with 4% paraformaldehyde for 5 minutes at room temperature. For morphological analysis, some cells were stained with fluorescently labelled DAPI for 15 minutes at room temperature. Quantitative analysis of the fluorescence intensity of Lact-C2-GFP was performed with Python3 and OpenCV. OpenCV was used to remove background and noise pixels, and the sum of all remaining pixel values was used to evaluate the fluorescence intensity of Lact-C2-GFP.
The inhibitory activity (%) of each of the test compounds was obtained by the following steps. In each row of 96 well plate, the inhibitory activity of each of the test compounds was calculated as percentages. The inhibitory activity of a negative control group to which neither compounds nor ionomycin were treated was set to be 100%, and the inhibitory activity of a positive control group to which ionomycin was treated and compounds were not treated was set to be 0%. The assay was performed in triplicate, and the results were averaged.

Row | inhibition at 0.1 µM [%] | inhibition at 1 µM [%] | Structure (SMILES)
1 | < 30 | < 30 | CN1CCN(c2ccc(CNC(=O)c3cccc(Nc4ccc(-c5ccccc5)nn4)c3)cc2)CC1 [Compound 197, N-(4-(4-methylpiperazin-1-yl)benzyl)-3-((6-phenylpyridazin-3-yl)amino)benzamide]
2 | 30 to 60 | ≥ 60 | O=C(N[C@@H]1C[C@H]1c1ccc(Cl)c(F)c1)c1cccc(Nc2ccc(-c3ccccc3)nn2)c1 [Compound 221, N-((1R,2S)-2-(4-chloro-3-fluorophenyl)cyclopropyl)-3-((6-phenylpyridazin-3-yl)amino)benzamide]
3 | < 30 | 30 to 60 | CN1CCN(Cc2ccc(NC(=O)c3cccc(Nc4ncc(-c5cccc(F)c5)cn4)c3)cc2)CC1 [Compound 135, 3-((5-(3-fluorophenyl)pyrimidin-2-yl)amino)-N-(4-((4-methylpiperazin-1-yl)methyl)phenyl)benzamide]
4 | < 30 | ≥ 60 | O=C(Nc1nccs1)c1cccc(Nc2ncc(-c3cccc(F)c3)cn2)c1 [Compound 138, 3-((5-(3-fluorophenyl)pyrimidin-2-yl)amino)-N-(thiazol-2-yl)benzamide]
5 | < 30 | < 30 | O=C(NCc1ccccc1Br)c1cccc(Nc2ncc(-c3cccc(F)c3)cn2)c1 [Compound 216, N-(2-bromobenzyl)-3-((5-(3-fluorophenyl)pyrimidin-2-yl)amino)benzamide]
6 | < 30 | 30 to 60 | O=C(NCc1ccc(C(F)(F)F)cc1C(F)(F)F)c1cccc(Nc2ncc(-c3cccc(F)c3)cn2)c1 [Compound 208, N-(2,4-bis(trifluoromethyl)benzyl)-3-((5-(3-fluorophenyl)pyrimidin-2-yl)amino)benzamide]
7 | < 30 | 30 to 60 | CN(CCCNC(=O)c1cccc(Nc2ccc(-c3ccccc3)nn2)c1)Cc1ccccc1 [Compound A95]
8 | < 30 | ≥ 60 | O=C(NCCc1ccc(F)cc1)c1cccc(Nc2ccc(-c3ccccc3)nn2)c1 [Compound 198, N-(4-fluorophenethyl)-3-((6-phenylpyridazin-3-yl)amino)benzamide]
9 | < 30 | < 30 | Cc1ccc(CCNC(=O)c2cccc(Nc3ncc(-c4ccccc4)cn3)c2)o1 [Compound 153, N-(2-(5-methylfuran-2-yl)ethyl)-3-((5-phenylpyrimidin-2-yl)amino)benzamide]
10 | < 30 | 30 to 60 | O=C(NCc1ccc(Cl)cc1)c1cccc(Nc2ncc(-c3cccc(F)c3)cn2)c1 [Compound A101]
11 | < 30 | 30 to 60 | O=C(NCc1ccc(C(F)(F)F)cc1)c1cccc(Nc2ncc(-c3cccc(F)c3)cn2)c1 [Compound 202, 3-((5-(3-fluorophenyl)pyrimidin-2-yl)amino)-N-(4-(trifluoromethyl)benzyl)benzamide]
12 | < 30 | < 30 | Cc1cc(CNC(=O)c2cccc(Nc3ccc(-c4ccccc4)nn3)c2)ccc1F [Compound 231, N-(4-fluoro-3-methylbenzyl)-3-((6-phenylpyridazin-3-yl)amino)benzamide]
13 | < 30 | ≥ 60 | O=C(Nc1cccc([N+](=O)[O-])c1)c1cccc(Nc2ncc(-c3cccc(F)c3)cn2)c1 [Compound 137, 3-((5-(3-fluorophenyl)pyrimidin-2-yl)amino)-N-(3-nitrophenyl)benzamide]
14 | < 30 | < 30 | Cc1ccc(CNC(=O)c2cccc(Nc3ncc(-c4cccc(F)c4)cn3)c2)cc1 [Compound A97]
15 | < 30 | < 30 | O=C(NCc1cc(F)c(F)cc1F)c1cccc(Nc2ncc(-c3cccc(F)c3)cn2)c1 [Compound 209, 3-((5-(3-fluorophenyl)pyrimidin-2-yl)amino)-N-(2,4,5-trifluorobenzyl)benzamide]
16 | < 30 | 30 to 60 | O=C(NCc1ccc(F)c(F)c1F)c1cccc(Nc2ncc(-c3cccc(F)c3)cn2)c1 [Compound 217, 3-((5-(3-fluorophenyl)pyrimidin-2-yl)amino)-N-(2,3,4-trifluorobenzyl)benzamide]
17 | < 30 | ≥ 60 | O=C(Nc1cccc(F)c1)c1cccc(Nc2ccc(-c3ccncc3)cc2)c1 [Compound 162, N-(3-fluorophenyl)-3-((4-(pyridin-4-yl)phenyl)amino)benzamide]
18 | < 30 |  | CN(c1cccc(C(=O)N[C@@H]2C[C@H]2c2ccccc2)c1)c1ncc(-c2cccc(F)c2)cn1 [Compound 180, 3-((5-(3-fluorophenyl)pyrimidin-2-yl)(methyl)amino)-N-((1R,2S)-2-phenylcyclopropyl)benzamide]
19 | < 30 | ≥ 60 | O=C(NCc1ccc(F)c(C(F)(F)F)c1)c1cccc(Nc2ccc(-c3ccccc3)nn2)c1 [Compound 195, N-(4-fluoro-3-(trifluoromethyl)benzyl)-3-((6-phenylpyridazin-3-yl)amino)benzamide]
20 | < 30 | 30 to 60 | COc1cc(F)ccc1CNC(=O)c1cccc(Nc2ccc(-c3ccccc3)nn2)c1 [Compound 214, N-(4-fluoro-2-methoxybenzyl)-3-((6-phenylpyridazin-3-yl)amino)benzamide]
21 | < 30 | < 30 | CN1CCC(CNC(=O)c2cccc(Nc3ccc(-c4cccc(F)c4)cn3)c2)C1 (centres unmarked) [Compound 145, 3-((5-(3-fluorophenyl)pyridin-2-yl)amino)-N-((1-methylpyrrolidin-3-yl)methyl)benzamide]
22 | < 30 | < 30 | O=C(Nc1cccc(F)c1)c1cccc(Nc2nnc(-c3ccccc3)o2)c1 [Compound 158, N-(3-fluorophenyl)-3-((5-phenyl-1,3,4-oxadiazol-2-yl)amino)benzamide]
23 | < 30 |  | O=C(NC1CCCCCC1)c1cccc(Nc2ncc(-c3cccc(F)c3)cn2)c1 [Compound A94]
24 | < 30 |  | O=C(Nc1ccccc1)c1cccc(Nc2ncc(-c3cccc(F)c3)cn2)c1 [Compound A93]
25 | < 30 | < 30 | CN1CCC(C2CC2NC(=O)c2cccc(Nc3ccc(-c4cccc(F)c4)cn3)c2)CC1 (centres unmarked) [Compound 144, 3-((5-(3-fluorophenyl)pyridin-2-yl)amino)-N-(2-(1-methylpiperidin-4-yl)cyclopropyl)benzamide]
26 | 30 to 60 |  | CCN1CCN(c2cc(F)ccc2CNC(=O)c2cccc(Nc3ccc(-c4ccccc4)nn3)c2)CC1 [Compound 220, N-(2-(4-ethylpiperazin-1-yl)-4-fluorobenzyl)-3-((6-phenylpyridazin-3-yl)amino)benzamide]
27 | < 30 | ≥ 60 | O=C(N[C@@H]1C[C@H]1c1ccc(Cl)c(F)c1)c1cccc(Nc2ncc(-c3cccc(F)c3)cn2)c1 [Compound 131, N-((1R,2S)-2-(4-chloro-3-fluorophenyl)cyclopropyl)-3-((5-(3-fluorophenyl)pyrimidin-2-yl)amino)benzamide]
